According to paper PMC8427023, “Bithiazole Inhibitors of Phosphatidylinositol 4‐Kinase (PI4KIIIβ) as Broad‐Spectrum Antivirals Blocking the Replication of SARS‐CoV‐2, Zika Virus, and Human Rhinoviruses” (Chemmedchem, 2021):
In brackets after ≈: the same amount, converted by molar mass. Where two headings read alike, the source gives them in different places.

Tests used:
SARS-CoV-2 [1] = test: microbe, parasite or virus in culture; format: cell-based; conditions: for IC50: read-out: SARS-CoV-2 Calu-3 IC50 (DYRA protocol)
[2] = Cytotoxicity assay (CellTiter-Glo 2.0) in Calu-3 cells; format: cell-based; conditions: human, half-maximal cytotoxic concentration, read-out: SARS-CoV-2 Calu-3 CC50
hRV14 [3] = test: Multicycle CPE reduction antiviral assay, hRV14 in HeLa cells; format: cell-based, human rhinovirus 14; conditions: 3 days
HeLa = conditions: read-out: HeLa CC50; HeLa cells
hRV2 [4] = test: Multicycle CPE reduction antiviral assay, hRV2 in HeLa cells; format: cell-based, human rhinovirus 2; conditions: 3 days
[5] = Stability in medium/serum solution; format: in vitro ADME; conditions: EMEM, 2 mM L-glut, 1 % FBS, 1 % Pen/Strep, 37 °C
Method: (§1) appropriate calibration curve. For each compound, the determination was performed in three […]
(§2) Parallel Artificial Membrane Permeability Assay (PAMPA)
(§3) Each ‘donor solution’ was prepared from a solution of each compound (DMSO, 1 mM) diluted with 25 mM Phosphate Buffered Saline (PBS) at pH 7.4, up to a final concentration of 500 μM. The donor wells were filled with 150 µL of ‘donor solution’. The filters were coated with 5 μL of a solution of phosphatidylcholine in dodecane 1% (w/v) and the lower wells filled with 300 µL of ‘acceptor solution’ (50% v/v DMSO and PBS). The sandwich plate was assembled and incubated for 5 hours at room temperature under gentle shaking. At the end of the incubation time, the sandwich was disassembled and the amount of compound in the donor and acceptor wells was measured by LC-UV-MS. For each compound, the determination was performed in three independent experiments.
Apparent permeability (Papp) and membrane retention (%MR) were calculated according to the equations reported in reference.
(§4) Stability in Human Plasma
(§5) Pooled human plasma (1.5 mL, […]), PBS (1.4 mL, pH 7.4, 25 mM) and tested compound dissolved in DMSO (100 µL, 3.0 mM) were mixed in a test tube that was incubated at 37 […]
mixed with 600 µL of cold acetonitrile and centrifuged at 5000 rpm for 15 min [3]. The supernatant was removed and analyzed by LC-UV-MS. For each compound, the determination was performed in three independent experiments.
Stability in Medium/Serum solution
The stability of compounds under the experimental conditions used in the ENTRY-DYRA antiviral assay was evaluated. Each tested compound dissolved din DMSO (1.0 mL, 400 µM) was mixed in a test tube with EMEM, 2 mM L-glut, 1% FBS, 1% Pen/Strep solution (final concentration of the compound of 200 µM) and then incubated at 37 °C. At set time points (0.0, 0.08, 0.25, 0.50, 1.0, 3.0, and 24.0 h), samples of 100 µL were taken, mixed with 400 µL of cold acetonitrile and centrifuged at 5000 rpm for 15 min. The supernatant was removed and analyzed by UV/LC-MS. For each compound, the determination was performed in three independent experiments.

[6] = format: in vitro ADME; conditions: human, 24 h, 100 µM, pH 7.4
Method: appropriate calibration curve. […]
as §4, §5
mixed with 600 µL of cold acetonitrile and centrifuged at 5000 rpm for 15 min [3]. The supernatant was removed and analyzed by LC-UV-MS. For each compound, the determination was performed in three independent experiments. […]

PI4KIIIβ = target: T1, PI4KIIIβ (Homo sapiens, UniProt Q9UBF8); test: In vitro kinase inhibition assay, PI4KIIIβ; format: biochemical; conditions: mean of at least three independent experiments; 20 μM ATP
T1 construct: Recombinant full length, HIS6 -tagged PI4KIIIβ was purchased from ProQinase; His6; purchased ProQinase (Germany)
T1 sequence (Q9UBF8 whole entry): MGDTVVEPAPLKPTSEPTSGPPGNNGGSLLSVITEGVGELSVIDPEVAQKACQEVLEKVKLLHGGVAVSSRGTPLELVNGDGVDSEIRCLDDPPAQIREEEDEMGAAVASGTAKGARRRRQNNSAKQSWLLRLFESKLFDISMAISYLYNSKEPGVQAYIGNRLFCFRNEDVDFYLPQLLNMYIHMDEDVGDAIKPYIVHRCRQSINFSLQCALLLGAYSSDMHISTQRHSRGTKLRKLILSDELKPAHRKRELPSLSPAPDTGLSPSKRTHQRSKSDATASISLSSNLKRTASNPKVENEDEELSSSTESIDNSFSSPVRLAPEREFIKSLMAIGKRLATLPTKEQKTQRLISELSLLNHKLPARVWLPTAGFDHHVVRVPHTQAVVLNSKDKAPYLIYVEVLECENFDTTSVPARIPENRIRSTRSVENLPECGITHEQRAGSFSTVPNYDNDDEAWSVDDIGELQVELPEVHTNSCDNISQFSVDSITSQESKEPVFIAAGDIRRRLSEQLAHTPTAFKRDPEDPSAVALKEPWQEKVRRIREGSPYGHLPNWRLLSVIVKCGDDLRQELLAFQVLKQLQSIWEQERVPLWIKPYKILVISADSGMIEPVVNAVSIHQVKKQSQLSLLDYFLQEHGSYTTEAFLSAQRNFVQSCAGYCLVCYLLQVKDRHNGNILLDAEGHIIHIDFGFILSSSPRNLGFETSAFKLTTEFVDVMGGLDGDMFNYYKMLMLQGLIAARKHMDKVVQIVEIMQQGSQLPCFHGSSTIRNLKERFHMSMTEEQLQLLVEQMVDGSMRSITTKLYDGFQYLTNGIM

in vitro [7] = format: in vitro ADME; conditions: PAMPA, pH 7.4; for Membrane Retention (% MR): 5 h, 500 μM
Method: as §1, §2, §3
Apparent permeability (Papp) and membrane retention (%MR) were calculated according to the equations reported in reference. […]

SARS-CoV-2 [8] = test: ENTRY-DYRA (entry inhibitor protocol), SARS-CoV-2 in Calu-3 cells; format: cell-based
in vitro [9] = conditions: human
in vitro [10] = conditions: human; remark: listed apart in the source
ZIKV = test: Direct yield reduction assay (DYRA), ZIKV in Huh7 cells; format: cell-based, Zika virus; conditions: for IC50: Zika virus, read-out: ZIKV Huh7 IC50
in vitro [11] = conditions: human; remark: listed apart in the source
[12] = Stability in medium/serum solution; format: in vitro ADME; conditions: EMEM, 2 mM L-glut, 1 % FBS, 1 % Pen/Strep, 37 °C; remark: listed apart in the source
in vitro [13] = conditions: human; remark: listed apart in the source
physchem = format: physicochemical; conditions: pH 7.4, aqueous buffer
[14] = Cytotoxicity assay (CellTiter-Glo 2.0) in Huh7 cells; conditions: human
Enterovirus-A71 (EV-A71) = tested on: Enterovirus-A71 (EV-A71); parameters: method as in PMID 28122178, PMID 31729878; conditions: at low micromolar concentration; cited from earlier work
hRV2 [15] = tested on: hRV2; parameters: method as in PMID 31729878; conditions: HeLa cells; cited from earlier work
coxsackievirus B3 (CVB3) = tested on: coxsackievirus B3 (CVB3); parameters: method as in PMID 28122178, PMID 31729878; conditions: at low micromolar concentration; cited from earlier work
hRV14 [16] = tested on: hRV14; parameters: method as in PMID 31729878; conditions: HeLa cells; cited from earlier work
[17] = Severe acute respiratory syndrome coronavirus 2, Calu-3 cells, 72 h incubation, ±SD, NA: Not active
[18] = Severe acute respiratory syndrome coronavirus 2, Calu-3, 72 h

Structure (SMILES) | CC50 [2] | Stability in Medium/Serum 24 h [5] | IC50 (hRV14 [3]; Rhinovirus B, HRV14, 72 h) | Plasma Stability [6] | IC50 (PI4KIIIβ) | Membrane Retention (% MR) (in vitro [7]) | Papp at 5 h, 500 μM (in vitro [7]) | CC50 (in vitro [9]) | IC50 (ZIKV; Huh-7, Huh7 cells, DYRA, 72 h) | IC50 (hRV2 [4]; Rhinovirus A, HRV2, 72 h) | viability at 4 h, 50 µM (in vitro [11]) | Stability in Medium/Serum 48 h [12] | CC50 at 3 days (in vitro [13]) | solubility (physchem) | also measured
CCC(CC)COC(=O)[C@H](C)N[P@](=O)(OC[C@H]1O[C@@](C#N)(c2ccc3c(N)ncnn23)[C@H](O)[C@@H]1O)Oc1ccccc1 [RMD, Remdesivir, reference compound] | 97 µM |  |  |  |  |  |  |  |  |  |  |  |  |  | IC50 (SARS-CoV-2 [1]; [17]): 110 ± 40 nM
Cc1nc2c(NCc3cccc(S(C)(=O)=O)c3)nccn2c1-c1ccc(O)c(F)c1 [BF738735, reference compound] |  |  |  |  |  |  |  |  |  |  |  |  |  |  | IC50 (hRV14 [3]): 590 ± 280 nM; CC50 (HeLa): > 30 µM; IC50 (hRV2 [4]): 390 ± 360 nM
Cc1nc(NC(=O)C(C)(C)C)sc1-c1csc(N(CC(C)(C)O)C2CCCCC2)n1 [4 d] | 17 µM | 93.3% | 1400 ± 1200 nM | 92.4% | 1970 ± 790 nM | 18.05% | 11.7 ×10⁻⁶ cm/s | 4 µM | 0.51 ± 0.05 µM | 900 ± 720 nM | 94.8% | 85.7% | 23.8 ± 1.7 µM | 0.01 µg/mL (≈ 0.0222 µM) | IC50 (SARS-CoV-2 [1]; [17]): 1570 ± 380 nM; selectivity index (SI) against SARS-CoV-2 under DYRA conditions (SARS-CoV-2 [1]; ratio between CC50 and IC50, Calu-3): 11; IC50 (SARS-CoV-2 [8]; Severe acute respiratory syndrome coronavirus 2, Calu-3 cells treated 1 h before infection, compound and virus removed, 72 h incubation, read-out: SARS-CoV-2 Calu-3 IC50 (ENTRY-DYRA conditions, in parenthesis) (converted)): 370 nM; viability (in vitro [10]): > 95%; selectivity index (SI) against ZIKV (ZIKV; ratio between CC50 and IC50, Huh7): 8
Cc1nc(NC(=O)C(C)(C)C)sc1-c1csc(NCC(C)(C)O)n1 [4 c] | > 100 µM | 77% | 480 ± 140 nM | 92.3% | 890 ± 200 nM | < 0.1% | 0.323 ×10⁻⁶ cm/s | 37 µM | 0.83 ± 0.31 µM | 390 ± 10 nM | 98.3% | 67.3% | > 30 µM | 0.32 µg/mL (≈ 0.868 µM) | 
CC(C)OC(=O)[C@H](C)N[P@](=O)(OC[C@H]1O[C@@H](n2ccc(=O)[nH]c2=O)[C@](C)(F)[C@@H]1O)Oc1ccccc1 [SOF, Sofosbuivir, reference compound] |  |  |  |  |  |  |  |  |  |  |  |  |  |  | CC50 [14]: 200 µM; IC50 (ZIKV; Huh-7, 72 h): 2.7 ± 0.5 µM
Cc1nc(NC(=O)C(C)(C)C)sc1-c1csc(N(CCO)CCO)n1 [4 b] | > 100 µM | 91.4% | 2070 ± 1450 nM | 90.2% | 240 ± 50 nM | 0.94% | 0.021 ×10⁻⁶ cm/s | 125 µM | 5 ± 1.2 µM | 1370 ± 1310 nM | 92.6% | 84.9% | > 30 µM | 0.28 µg/mL (≈ 0.728 µM) | 
Cc1nc(NC(=O)C(C)(C)C)sc1-c1csc(NCC(O)CO)n1 (stereo not shown) [4 a] | > 100 µM | 99.0% | 2320 ± 1540 nM | 99.4% | 290 ± 80 nM | < 0.1% | 0.008 ×10⁻⁶ cm/s | > 200 µM | 46.5 ± 2.96 µM | 1770 ± 620 nM | 96% | 97.5% | > 30 µM | 5.26 µg/mL (≈ 14.2 µM) | 
Cc1nc(NC(=O)C(C)(C)C)sc1-c1csc(Nc2cccc(C(=O)O)c2)n1 [compound 1] | 45 µM | 96.4% |  | 99.1% |  | < 0.1% | 0.052 ×10⁻⁶ cm/s | 110 µM |  |  | 94.1% | 93.1% | 36 µM | 0.21 µg/mL (≈ 0.504 µM) | inhibition of EV-A71 replication in infected cells (Enterovirus-A71 (EV-A71)): inhibited; IC50 (SARS-CoV-2 [1]; [18]): 7450 ± 2470 nM; SARS-CoV-2 Calu-3 IC50 (ENTRY-DYRA conditions, in parenthesis) (SARS-CoV-2 [8]; Calu-3 cells treated 1 h before infection, compound and virus removed, 72 h incubation): no effect on the entry phase; IC50 (hRV2 [15]): 9.7 µM; IC50 (ZIKV; Huh-7, 72 h): 13.8 ± 4.08 µM; inhibition of CVB3 replication in infected cells (coxsackievirus B3 (CVB3)): inhibited; IC50 (hRV14 [16]): 15.3 µM
CN(C)C(=O)COC(=O)Cc1ccc(OC(=O)c2ccc(NC(=N)N)cc2)cc1 [CMT, Camostat, reference compound] | 200 µM |  |  |  |  |  |  |  |  |  |  |  |  |  | IC50 (SARS-CoV-2 [1]; [18]): 820 ± 320 nM; IC50 (SARS-CoV-2 [8]; Severe acute respiratory syndrome coronavirus 2, Calu-3, read-out: SARS-CoV-2 Calu-3 IC50 (ENTRY-DYRA conditions, in parenthesis)): 40 nM
